{"source": "patent US20240315246A1", "about": "“METHOD OF USING SIMAZINE FOR CONTROLLING ANNUAL BLUEGRASS IN COOL SEASON-TURFGRASSES” (priority 2023, published 2024)", "key": {"ryegrass [1]": {"test_system": "ryegrass", "text": "For example, when converting from overseeded ryegrass turf to perennial bermudagrass in the spring season, sublethal doses of Sapphire herbicide (or other ryegrass-removal herbicides) are applied to cause the ryegrass to slowly fade away. […] In other aspects, a method of enhancing color and quality of a turf including the cool-season turfgrass species comprises co-administering Simazine with Penoxsulam or other ryegrass-removal herbicides to the turf comprising the cool-season turfgrass species. In such implementations, a sub-lethal dosage application of Simazine in relation to the desirable cool-season turfgrass species is co-administered with Penoxsulam or other ryegrass-removal herbicides."}, "[2]": {"test_system": "annual bluegrass (Poa annua)", "experiment": "Co-administration with ryegrass-weakening herbicides A and B on ryegrass turf infested with Poa annua", "format": "in vivo", "details": "Simazine mixed with herbicide A or B; 60 days after treatment", "text": "Herbicides A and B were applied at low dosages to weaken the existing ryegrass turf which was infested with Poa annua. Poa annua is not sensitive to either A or B. As shown in the untreated section, Poa annua would otherwise proliferate during the herbicidal treatment at 60 days after treatment, but co-administration with Simazine prevents Poa annua proliferation during the herbicidal treatment.\nBecause annual bluegrass is not sensitive to certain herbicides used for weakening existing ryegrass, treatment with such herbicides may not be beneficial in removing the turf as the annual bluegrass would proliferate in the area. However, mixing Simazine with herbicides improves the results of the herbicidal treatments in turf removal. […] Annual bluegrass is not sensitive to either herbicide."}, "annual bluegrass": {"test_system": "annual bluegrass", "experiment": "Test turf in a cool high-altitude climate", "format": "in vivo, Poa annua", "method": "FIG. 10 is a photograph of a test turf in a cool high-altitude climate.\n(§1) Unless noted otherwise, the data and results shown herein are from trials performed in Phoenix, AZ and would be representative of application of the methods described herein in a hot climate. However, Simazine is effective in management of annual bluegrass infestation in a turf comprising cool-season turfgrass species in cool, high-altitude climates as well as in hot climates (see FIG. 10). The tests were conducted according to standards required by the U.S. Environmental Protection Agency for evaluating herbicides."}, "ryegrass [3]": {"test_system": "ryegrass", "experiment": "Safety to ryegrass seeded after treatment of bermudagrass turf", "format": "in vivo", "details": "applied four days prior to planting ryegrass; 43 days after seeding", "text": "Simazine may also be applied during the transition of a turf from warm-season turfgrass species to cool-season turfgrass species. Simazine is not injurious to desired cool-season turfgrasses when applied prior to planting seed. FIG. 11A show soon-to-be-dormant bermudagrass turf treated with simazine four days prior to planting ryegrass into the turf."}, "[4]": {"test_system": "seashore Paspalum (Paspalum vaginatum)", "experiment": "Selective control of seashore Paspalum in bermudagrass turf", "format": "in vivo", "details": "single application 0.5 lb AI/A", "text": "(§2) Bermudagrass and seashore Paspalum (Paspalum vaginatum) are both warm-season turfgrasses. However, when one species is desired, often the other species is found to contaminate the desired species. When seashore Paspalum contaminates bermudagrass, the result is undesirable. It was discovered that Simazine may be used to selectively remove the seashore Paspalum because bermudagrass is much more tolerant of Simazine than is seashore Paspalum."}, "[5]": {"test_system": "annual bluegrass (Poa annua)", "experiment": "Suppression of annual bluegrass flowers and seedheads in ryegrass turf", "format": "in vivo", "text": "The test turfs shown in FIGS. 9A and 9B are ryegrass turfs infested with Poa annua that received two applications of Simazine at a rate of 0.25 lb AI/A per application.\nHowever, applying a sub-lethal dosage of Simazine in relation to annual bluegrass still improves the quality of the turf comprising cool-season turfgrasses. Using applications that are sub-lethal to annual bluegrass (at least in the near term), simazine treatment suppresses the production of annual bluegrass flowers and seedheads rendering the turf more desirable.\nThe #1 plot in FIG. 8A was treated with Simazine (0.25 lb AI/A). […] The other areas were untreated and the annual bluegrass there produced prolific flowers and seedheads. FIGS. 9A and 9B show multiple applications made to ryegrass turf infested with Poa annua."}, "Poa annua": {"test_system": "Poa annua", "experiment": "Field trial: control of Poa annua in turf comprising cool-season turfgrasses, multiple low-rate applications", "format": "in vivo", "details": "multiple applications at rates as low as 0.05 lbs AI/A; no photo documentation", "method": "as §1\nHowever, multiple applications of lower rates may provide greater safety to the ryegrass than a higher rate single application even though both may effectively control the annual bluegrass (FIGS. 4A-6B). Multiple applications of Simazine at lower rates reduce the risk of overdosing the desirable cool-season turfgrass due to application overlaps, which occur often during turf treatments."}, "[6]": {"test_system": "annual bluegrass (Poa annua)", "experiment": "Field trial: control of annual bluegrass in bentgrass turf", "format": "in vivo", "text": "Bentgrass turfgrass species are more sensitive to Simazine application than ryegrass. […] While there was still a large presence of annual bluegrass at 13 days after treatment, the patch of annual bluegrass is visibly ill (FIG. 7A)."}, "[7]": {"test_system": "annual bluegrass (Poa annua)", "experiment": "Field trial: control of annual bluegrass in ryegrass turf", "format": "in vivo", "method": "Unless noted otherwise, the data and results shown herein are from trials performed in Phoenix, AZ and would be representative of application of the methods described herein in a hot climate. […] The tests were conducted according to standards required by the U.S. Environmental Protection Agency for evaluating herbicides.\nFIG. 1A depicts a ryegrass/annual bluegrass turf test area that was subjected to four treatments. Initial treatments were made in December. Treatment area #1 received a low application rate (0.25 lb AI/A) of Simazine followed by a second low rate application one month later. Treatment area #2 received two medium rate (0.5 lb AI/A) applications on the same schedule as treatment area #1. Treatment area #3 received a single medium rate application. Treatment area #4 received no Simazine applications. The test area was evaluated 90 days after the first application as shown in FIG. 1A and the quantification data is presented in FIG. 1B.\nFIG. 2B represents a single application at 0.75 lb AI/A using the 90DF formulation. […] FIG. 3A compares single application of application rates of 0.25 lb AI/A, 0.5 lb AI/A, 0.75 lb AI/A, and 1.0 lb AI/A at 86 days after treatment. FIG. 3B quantifies the percentage of annual bluegrass coverage on the test turf at 79 days after treatment."}, "bermudagrass": {"test_system": "bermudagrass", "experiment": "Tolerance of bermudagrass turf", "format": "in vivo", "details": "single application 0.5 lb AI/A", "text": "as §2"}, "[8]": {"test_system": "cool-season turfgrass species", "experiment": "Margin of safety on desired cool-season turfgrass species", "details": "in vivo"}, "[9]": {"details": "ryegrass turf, two applications of 0.25 lb AI/A (FIGS. 9A, 9B)"}}}
{"smiles": "COc1cnc(OC)n2nc(NS(=O)(=O)c3c(OCC(F)F)cccc3C(F)(F)F)nc12", "note": "[Sapphire, 2-(2,2-difluoroethoxy)-N-(5,8-dimethoxy-[1,2,4]triazolo[1,5-c]pyrimidin-2-yl)-6-(trifluoromethyl)benzenesulfonamide]", "values": [{"measurement": "colour and quality of ryegrass during conversion to bermudagrass", "setting": "ryegrass [1]; sublethal doses of ryegrass-removal herbicide alone", "result": "degrades the color and quality of the ryegrass"}]}
{"smiles": "CCNc1nc(Cl)nc(NCC)n1", "note": "[Simazine, 6-chloro-2-N,4-N-diethyl-1,3,5-triazine-2,4-diamine]", "values": [{"measurement": "colour of treated ryegrass versus untreated", "setting": "ryegrass [1]; single application, 1.0 and 0.75 lb AI/A (FIGS. 2A, 2B)", "result": "deeper green color"}, {"measurement": "colour and quality of ryegrass turf during conversion to bermudagrass", "setting": "ryegrass [1]; sub-lethal Simazine about 0.25 AI/A included with Sapphire treatment", "result": "enhances the color and quality of the ryegrass turf"}, {"measurement": "annual bluegrass proliferation during herbicidal treatment", "setting": "[2]", "result": "without allowing annual bluegrass to proliferate"}, {"measurement": "turf colour compared to untreated turf", "setting": "annual bluegrass", "result": "darker green color"}, {"measurement": "control of annual bluegrass infestation", "setting": "annual bluegrass; effective dose specific to the climate", "result": "control of annual bluegrass infestation"}, {"measurement": "effect on young ryegrass", "setting": "ryegrass [3]", "result": "did not affect the young ryegrass"}, {"measurement": "control of seashore Paspalum", "setting": "[4]", "result": "eradicate seashore Paspalum"}, {"measurement": "flowering and seedhead production in surviving annual bluegrass", "setting": "[5]; plot #1 FIG. 8A, 0.25 lb AI/A", "result": "suppressed"}, {"measurement": "kill of annual bluegrass", "setting": "[5]; plot #1 FIG. 8A, 0.25 lb AI/A", "result": "only a portion of the annual bluegrass was killed"}, {"measurement": "formation of flowers and seedheads", "setting": "[5]; [9]", "result": "greatly suppressed"}, {"measurement": "kill of Poa annua", "setting": "[5]; [9]", "result": "did not kill the Poa annua"}, {"measurement": "control of Poa annua", "setting": "Poa annua", "result": "successfully controlled Poa annua"}, {"measurement": "condition of annual bluegrass patch", "setting": "[6]; 0.5 lb AI/A, 13 days after treatment", "result": "visibly ill"}, {"measurement": "coverage of the test area with annual bluegrass", "setting": "[6]; 0.5 lb AI/A, 38 days after treatment", "result": "significantly reduced"}, {"measurement": "control of annual bluegrass infestation", "setting": "[6]; application at 0.5 lb AI/A", "result": "effectively controlled annual bluegrass infestation"}, {"measurement": "selective control of annual bluegrass", "setting": "[7]; another site, single application 1.0 lb AI/A, 4 L formulation", "result": "selective control of annual bluegrass"}, {"measurement": "annual bluegrass coverage on the test turf", "setting": "[7]; single application 0.25 lb AI/A, 79 days after treatment, untreated over 80%", "result": 50, "unit": "%"}, {"measurement": "visual presence of annual bluegrass within the treated turf", "setting": "[7]; single application 1.0 lb AI/A, 79 days after treatment", "result": "effectively removed visual presence of any annual bluegrass"}, {"measurement": "damage to bermudagrass", "setting": "bermudagrass", "result": "not damaging bermudagrass"}]}
{"smiles": "CCNc1nc(Cl)nc(NC(C)C)n1", "note": "[atrazine]", "values": [{"measurement": "margin of safety on desired cool-season turfgrass species, compared with Simazine", "setting": "[8]", "result": "lesser margin of safety"}]}
